We go through 1 compound from patent US20240361338A1, “DIAGNOSIS AND TREATMENT OF ECTOPIC ENDOMETRIOSIS” (FERRING B.V., priority 2021, published 2024).

One assay concerns VEGF. The assay can be described thus: VEGF levels in the E-MSC-HUVEC coculture model. The following applies: quinagolide treated coculture. The format is cell-based, human. Here is the method: An indirect co-culture assembly was obtained plaiting HUVECs and E-MSCs at a ratio of 1:1 (1.5×10^4/cell line) in E-MSC medium in T25 and maintaining the co-culture for 48 h in 37° C. and 5% CO2 atmosphere incubator. HUVECs and E-MSCs cultured alone were used as control for each experiment.

The next assay has as its system ectopic E-MSCs. Briefly: Endothelial differentiation (CD31) of ectopic E-MSCs in co-culture with HUVECs. As to conditions: ectopic E-MSCs, 100 nM, 24-h treatment, 48 h co-culture with HUVECs. The class given is cell-based, human. Here is the method:
FIG. 5: Quinagolide effect on EMSCs endothelial differentiation. A. FACS gating-strategy for the analysis of CD31^+ EMSCs after direct 48 h co-culture with HUVECs. EMSCs are gated as GFP negative population, and CD31 expression is evaluated on the described gated EMSCs after 48 h co-culture with HUVECs as percentage of CD31 APC positive events. B, C and D: Representative flow cytometry micrographs and quantification, expressed as percentage of variation respect to control co-culture, of the effect of 24 h treatment of EMSCs with 25 μM cabergoline, 1 μM sorafenib, 1 μM cabozantinib (B), 100 nM quinagolide (C) and the combination of 5 μM spiperone and 100 nM quinagolide (D) on EMSCs CD31 expression after 48 h of co-culture with HUVECs. Data are represented as mean±SD of at least three independent experiments, performed on different ectopic EMSC lines, and normalized to untreated co-culture. One-way ANova was performed: *=p<0.05 and ***=p<0.001 vs control.
(BSA)-Phosphate Buffered Saline (PBS) (Sigma). For each staining, 100,000 cells were incubated for 20 minutes at 4° C. with FITC, APC or PE-conjugated antibodies against: CD29, CD44, CD73, CD90 (BD Bioscences, Franklin Lakes, NJ, USA); CD31, CD34, CD105, CD140b, CD146, TEK receptor tyrosine kinase (Tie2), Sushi domain-containing protein 2 (SUSD2) (Miltenyi Biotech, Bergisch Gladbach, Germany); CD45 (AbD Serotec, Raleigh, NC, USA), or epithelial cell adhesion molecule (EPCAM) (BioLegend, San Diego, CA, USA). Labelled cells were washed by centrifugation and final pellet was resuspended in 200 μl of 0.1% BSA-PBS before cytofluorimetric analysis. Isotype (Miltenyi Biotec) was used as negative control.
Quinagolide powder (provided by Ferring Pharmaceuticals) was stored at 4° C. and resuspended in dimethylsulphoxide (DMSO) to a stock solution of 1 mM immediately before use. Spiperone powder (Sigma-Aldrich) was resuspended in water to a stock concentration of 1 mM and stored at −20° C. Cabergoline powder (Sigma-Aldrich) was dissolved in DMSO to a stock concentration of 25 mM and stored at −20° C. Sorafenib and cabozantinib (Sigma-Aldrich) were resuspended in DMSO to a final concentration of 10 mM and according to the manufacturer's instructions, and stored at −20° C. and −80° C., respectively. Quinagolide, spiperone and cabergoline were diluted 1:100 (final concentration 100 nM), 1:1000 (final concentration 5 μM) and 1:1000 (final concentration 25 μM) respectively. Quinagolide, cabergoline, sorafenib and cabozantinib and were administered for 24 hours during co-culture experiments, while spiperone was added to culture medium 1 h before quinagolide treatment. For invasion assays, E-MSCs were treated with spiperone 1 h before the cell detachment and quinagolide was added only when cells were plated on Matrigel. […]

For a further assay, the system named is endometriotic lesions. The following applies: patients with severe endometriosis and hyperprolactinemia (Gomez et al, 2011); cited from earlier work.
Assay [1] relates to ectopic EMSCs. The assay can be described thus: BrdU cell proliferation assay on E-MSCs. The format is cell-based, human. As to conditions: different concentrations, after 24 hours. On the procedure: FIG. 3: Quinagolide effect on EMSCs apoptosis and proliferation. A: Quinagolide concentration-response curve on ectopic EMSCs in both apoptosis (N=1) and proliferation (N=2) assays. B: Effect of two selected quinagolide doses (10^−5 and 10^−7M) on HUVECs (N=1) and ectopic E-MSCs (N=3) apoptosis and proliferation assays (N=2). Data are represented as mean±SD of the indicated number of experiments and normalized to untreated cells (Control). Cells were plated in growth medium at a concentration of 2,500 HUVECs/well and 3,000 E-MSCs/well in a 96-multiwell plate. The day after quinagolide was added to the growth medium at different concentrations after 24 hours. Deoxyribonucleic acid synthesis was detected as incorporation of 5-bromo-2-deoxyuridine (BrdU) into the cellular DNA after 48 hours from cell plaiting, using an enzyme-linked assay kit (Chemicon). Untreated cells were used as control. Data are expressed as the mean±standard deviation (SD) of the media of absorbance of at least three different experiments and normalized to control.

For assay [2], the system named is ectopic EMSCs. The assay can be described thus: Annexin V apoptosis assay on E-MSCs. The class given is cell-based, human. The following applies: different concentrations, after 24, 48 and 72 hours. Here is the method: FIG. 3: Quinagolide effect on EMSCs apoptosis and proliferation. A: Quinagolide concentration-response curve on ectopic EMSCs in both apoptosis (N=1) and proliferation (N=2) assays. B: Effect of two selected quinagolide doses (10^−5 and 10^−7M) on HUVECs (N=1) and ectopic E-MSCs (N=3) apoptosis and proliferation assays (N=2). Data are represented as mean±SD of the indicated number of experiments and normalized to untreated cells (Control). Annexin V assays were performed using the Muse™ Annexin V & Dead Cell Kit (Millipore), according to the manufacturer's recommendations. Briefly, 20×10^3 cells were plated and after 24 h treated with different concentrations of quinagolide. After 24, 48 and 72 hours, cells were detached and resuspended in Muse™ Annexin V & Dead Cell Kit and the percentage of apoptotic cells (Annexin V+) was measured. Data are expressed as the mean±standard deviation (SD) of the media of absorbance of at least three different experiments and normalized to control.

`CCCN1C[C@@H](NS(=O)(=O)N(CC)CC)C[C@@H]2Cc3c(O)cccc3C[C@H]21` [quinagolide, N,N-diethyl-N′-[(3S,4aS,10aR)-6-hydroxy-1-propyl-1,2,3,4,4a,5,10,10a-octahydrobenzo[g]quinolin-3-yl]sulfamide]: the “levels of VEGF in the coculture model” value with VEGF was “did not reduce”. Also, the “percentage of CD31 expressing E-MSCs after co-culture” value in the assay with ectopic E-MSCs is “significantly reduced”. Also, in the assay on endometriotic lesions, the “size of endometriotic lesions” value is on record as “reduced the size”. Moreover, the “proliferation of E-MSCs (BrdU)” value in the assay on ectopic EMSCs [1] is “did not affect proliferation”. The “apoptosis of E-MSCs (Annexin V+)” value with ectopic EMSCs [2] is reported as “did not increase apoptosis”.
